Source: publication PMC8204636 (ACS chemical biology, 2020)

Biological target: Cdk2 (Homo sapiens, UniProt P24941)
Experiment: p-Cl-ANS fluorescent binding assay
Conditions: for cooperativity with the allosteric ANS site: based on p-Cl-ANS fluorescent binding studies; for effect on the binding (fluorescence) of p-Cl-ANS: orthosteric ligand titrated into Cdk2 with p-Cl-ANS

| Compound | cooperativity with the allosteric ANS site | effect on the binding (fluorescence) of p-Cl-ANS |
| --- | --- | --- |
| Nc1ncnc2c1ncn2[C@@H]1O[C@H](COP(=O)(O)OP(=O)(O)NP(=O)(O)O)[C@@H](O)[C@H]1O [AMP-PNP, adenylyl-imidodiphosphate] | only weakly cooperative, if at all | little effect |
| Nc1ncnc2c1ncn2[C@@H]1O[C@H](COP(=O)(O)OP(=O)(O)OP(=O)(O)O)[C@@H](O)[C@H]1O [ATP] | only weakly cooperative, if at all | little effect |
